Target: T1, P2Y6 receptor (Homo sapiens, UniProt Q15077)
T1 construct: expressed in transfected cells; host or cells: 1321N1 human astrocytoma cells
Assay: Activation of P2Y6 receptor: receptor-induced Ca2+ changes measured with fluo-4
Format: cell-based
Conditions: sodium salts of the test compounds; 1321N1 human astrocytoma cells expressing P2Y6; fluo-4 Ca2+ fluorescence; nonlinear curve fit; read-out: EC50 of synthetic compounds for activation of P2Y6 receptor
Method: Synthetic compounds were tested for activation of P2Y6 receptor by measuring receptor induced Ca^2+ changes with the fluorescent Ca^2+ indicator fluo-4. 1321N1 human astrocytoma cell lines either expressing P2Y2, P2Y4 or P2Y6. Receptors were plated into 24-well plates. Two days after plating, fluorometric measurements were made and responses of cells to a serial dilution of the sodium salts of the test compounds were determined. P2Y6 receptor mediated Ca^2+ fluorescent change was determined by normalized accumulation of fluorescent change of 3 timepoints after compound administration subtracted by value from ACSF control. Changes in fluorescent intensity were plotted corresponding to compound concentration in GraphPad.

T1 sequence (Q15077 whole entry): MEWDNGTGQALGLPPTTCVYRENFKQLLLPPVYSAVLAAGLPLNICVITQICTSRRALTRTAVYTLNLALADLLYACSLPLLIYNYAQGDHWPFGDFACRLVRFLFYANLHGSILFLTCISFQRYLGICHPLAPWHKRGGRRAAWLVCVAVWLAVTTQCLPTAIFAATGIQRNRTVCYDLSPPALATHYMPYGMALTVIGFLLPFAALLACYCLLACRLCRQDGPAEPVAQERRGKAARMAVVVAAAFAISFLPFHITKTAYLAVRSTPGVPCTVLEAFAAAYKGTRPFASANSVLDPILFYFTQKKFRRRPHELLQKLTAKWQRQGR

Compound	EC50 [nM]
O=c1ccn([C@@H]2O[C@H](COP(=O)(O)OP(=O)(O)O)C(O)C2O)c(=O)n1Cc1ccc(-c2ccccc2)cn1 (stereo partly drawn) [Compound 29]	< 500
O=c1ccn([C@@H]2O[C@H](COP(=O)(O)OP(=O)(O)O)C(O)C2O)c(=O)n1Cc1cccc(-c2ccccc2)n1 (stereo partly drawn) [Compound 30]	1000 to 2000
O=c1ccn([C@@H]2O[C@H](COP(=O)(O)OP(=O)(O)O)C(O)C2O)c(=O)n1Cc1ncccc1-c1ccccc1 (stereo partly drawn) [Compound 31]	> 2000
O=c1ccn([C@@H]2O[C@H](COP(=O)(O)OP(=O)(O)O)C(O)C2O)c(=O)n1Cc1cc(-c2ccncc2)ccn1 (stereo partly drawn) [Compound 32]	1000 to 2000
O=c1ccn([C@@H]2O[C@H](COP(=O)(O)OP(=O)(O)O)C(O)C2O)c(=O)n1Cc1cc(-c2ccccn2)ccn1 (stereo partly drawn) [Compound 34]	500 to 1000
O=c1ccn([C@@H]2O[C@H](COP(=O)(O)OP(=O)(O)O)C(O)C2O)c(=O)n1Cc1cc(Cc2ccccc2)ccn1 (stereo partly drawn) [Compound 35]	< 500
O=c1ccn([C@@H]2O[C@H](COP(=O)(O)OP(=O)(O)O)C(O)C2O)c(=O)n1Cc1cc(Oc2ccccc2)ccn1 (stereo partly drawn) [Compound 36]	< 500
O=c1ccn([C@@H]2O[C@H](COP(=O)(O)OP(=O)(O)O)C(O)C2O)c(=O)n1Cc1cc(Nc2ccccc2)ccn1 (stereo partly drawn) [Compound 37]	500 to 1000
O=c1ccn([C@@H]2O[C@H](COP(=O)(O)OP(=O)(O)O)C(O)C2O)c(=O)n1Cc1cc(C2CCCC2)ccn1 (stereo partly drawn) [Compound 38]	500 to 1000
O=c1ccn([C@@H]2O[C@H](COP(=O)(O)OP(=O)(O)O)C(O)C2O)c(=O)n1Cc1cc(C2CCCCC2)ccn1 (stereo partly drawn) [Compound 39]	500 to 1000
O=c1ccn([C@@H]2O[C@H](COP(=O)(O)OP(=O)(O)O)C(O)C2O)c(=O)n1Cc1cc(N2CCCCC2)ccn1 (stereo partly drawn) [Compound 40]	> 2000
O=c1ccn([C@@H]2O[C@H](COP(=O)(O)OP(=O)(O)O)C(O)C2O)c(=O)n1Cc1cccc(-c2ccccc2)c1 (stereo partly drawn) [Compound 41]	< 500
O=c1ccn([C@@H]2O[C@H](COP(=O)(O)OP(=O)(O)O)C(O)C2O)c(=O)n1Cc1ccc(-c2ccccc2)s1 (stereo partly drawn) [Compound 42]	< 500
O=c1ccn([C@@H]2O[C@H](COP(=O)(O)OP(=O)(O)O)C(O)C2O)c(=O)n1Cc1ncc(-c2ccccc2)s1 (stereo partly drawn) [Compound 43]	< 500
O=c1ccn([C@@H]2O[C@H](COP(=O)(O)OP(=O)(O)O)C(O)C2O)c(=O)n1Cc1cnc(-c2ccccc2)s1 (stereo partly drawn) [Compound 44]	1000 to 2000
O=c1ccn([C@@H]2O[C@H](COP(=O)(O)OP(=O)(O)O)C(O)C2O)c(=O)n1Cc1ncc(-c2ccccc2)o1 (stereo partly drawn) [Compound 45]	< 500
O=c1ccn([C@@H]2O[C@H](COP(=O)(O)OP(=O)(O)O)C(O)C2O)c(=O)n1Cc1cnc(-c2ccccc2)o1 (stereo partly drawn) [Compound 46]	500 to 1000
O=c1ccn([C@@H]2O[C@H](COP(=O)(O)OP(=O)(O)O)C(O)C2O)c(=O)n1Cc1ccc(-c2ccccc2)o1 (stereo partly drawn) [Compound 47]	< 500
